These results are taken from patent publication US10759787B2, “Benzofuran derivative, preparation method thereof and use thereof in medicine” (Jiangsu Hengrui Medicine Co., Ltd., priority 2015, dated 2020).

For one experiment, the target named is EZH2-A677G (Homo sapiens (Human), UniProt Q15910, A677G). Nature of the experiment: EZH2-A677G mutant enzyme activity assay (HTRF). The following applies: read-out: IC50 for inhibiting the activity of enzyme EZH2-A677G. It is filed as biochemical. How it is done: Histone H3 biotin labeling and S-adenosyl methionine were respectively diluted to 50 nM and 50 μM with a kinase buffer, then added to a 384-well plate at 4 μl/well. The test compound was diluted with a kinase buffer (it was diluted from the highest concentration 30 μM in 10 fold concentration gradient to 7 concentration points), then added to the 384-well microtiter plate at 4 μl/well. The plate was incubated at room temperature for 2 hours. Histone H3K27 Me3 monoclonal antibody and Streptavidin-XL665 were diluted to 30 nM and 500 nM by HTRF detection buffer, then added to the 384-well microplate at 10 µl/well and incubated for 1 hour. A well without an EZH2 enzyme and a compound was used as a negative control, and a well with an EZH2 enzyme but without a compound was used as a positive control. […] The compound logarithm concentration vs the inhibition percentage relative to the positive control well was plotted using GraphPad Prism, then the IC50 values were calculated.
Sequence of EZH2-A677G (Q15910 whole entry A677G): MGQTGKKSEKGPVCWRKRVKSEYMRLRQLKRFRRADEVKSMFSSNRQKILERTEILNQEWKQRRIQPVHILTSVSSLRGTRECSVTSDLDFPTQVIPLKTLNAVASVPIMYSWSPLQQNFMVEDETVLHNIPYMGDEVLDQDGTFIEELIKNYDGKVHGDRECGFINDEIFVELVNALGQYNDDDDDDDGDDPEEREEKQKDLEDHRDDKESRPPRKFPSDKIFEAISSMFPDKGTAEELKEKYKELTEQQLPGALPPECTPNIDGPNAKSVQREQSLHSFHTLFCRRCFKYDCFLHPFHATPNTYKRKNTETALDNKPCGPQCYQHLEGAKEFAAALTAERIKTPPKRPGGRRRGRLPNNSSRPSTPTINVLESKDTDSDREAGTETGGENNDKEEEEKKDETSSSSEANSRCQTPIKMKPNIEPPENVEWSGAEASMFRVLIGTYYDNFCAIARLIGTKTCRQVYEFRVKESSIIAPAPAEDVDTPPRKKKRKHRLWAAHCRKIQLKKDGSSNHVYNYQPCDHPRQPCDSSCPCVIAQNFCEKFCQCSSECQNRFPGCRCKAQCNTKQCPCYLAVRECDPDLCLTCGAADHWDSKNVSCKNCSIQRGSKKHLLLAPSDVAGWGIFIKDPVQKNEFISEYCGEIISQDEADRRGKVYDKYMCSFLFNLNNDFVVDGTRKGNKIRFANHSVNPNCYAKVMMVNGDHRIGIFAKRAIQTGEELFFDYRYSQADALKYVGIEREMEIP
Sequence of EZH2-A677G (O75530 whole entry partner): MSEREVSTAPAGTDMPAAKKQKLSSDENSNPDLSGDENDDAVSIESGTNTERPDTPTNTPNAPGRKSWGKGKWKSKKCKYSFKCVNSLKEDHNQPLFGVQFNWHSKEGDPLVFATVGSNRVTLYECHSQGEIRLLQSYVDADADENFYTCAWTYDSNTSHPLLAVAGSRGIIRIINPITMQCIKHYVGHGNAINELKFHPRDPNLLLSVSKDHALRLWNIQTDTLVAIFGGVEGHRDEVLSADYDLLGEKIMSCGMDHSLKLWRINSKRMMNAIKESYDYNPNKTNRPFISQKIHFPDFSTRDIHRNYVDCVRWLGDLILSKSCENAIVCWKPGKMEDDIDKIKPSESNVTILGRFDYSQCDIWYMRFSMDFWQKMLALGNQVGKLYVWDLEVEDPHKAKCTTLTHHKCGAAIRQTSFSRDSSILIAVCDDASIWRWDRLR
Sequence of EZH2-A677G (Q15022 whole entry partner): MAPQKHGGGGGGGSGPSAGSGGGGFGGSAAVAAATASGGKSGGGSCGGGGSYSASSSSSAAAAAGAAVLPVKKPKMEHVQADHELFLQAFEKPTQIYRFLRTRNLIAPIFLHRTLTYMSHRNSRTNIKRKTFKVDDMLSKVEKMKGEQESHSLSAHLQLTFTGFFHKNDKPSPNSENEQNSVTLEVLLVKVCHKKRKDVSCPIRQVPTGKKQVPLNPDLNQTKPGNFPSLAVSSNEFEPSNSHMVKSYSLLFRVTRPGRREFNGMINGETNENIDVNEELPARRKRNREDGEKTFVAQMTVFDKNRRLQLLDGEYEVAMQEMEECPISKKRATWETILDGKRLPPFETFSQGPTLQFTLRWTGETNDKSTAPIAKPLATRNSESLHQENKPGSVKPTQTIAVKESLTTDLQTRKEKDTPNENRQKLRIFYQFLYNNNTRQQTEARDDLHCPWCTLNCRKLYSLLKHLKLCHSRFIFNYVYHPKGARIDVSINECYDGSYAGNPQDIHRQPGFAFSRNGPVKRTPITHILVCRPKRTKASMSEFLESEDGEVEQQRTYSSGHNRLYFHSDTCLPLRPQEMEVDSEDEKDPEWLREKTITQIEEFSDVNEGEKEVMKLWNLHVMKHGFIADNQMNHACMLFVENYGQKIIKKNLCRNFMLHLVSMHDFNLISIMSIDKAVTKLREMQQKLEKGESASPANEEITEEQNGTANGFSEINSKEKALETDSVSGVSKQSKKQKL
Sequence of EZH2-A677G (Q09028 whole entry partner): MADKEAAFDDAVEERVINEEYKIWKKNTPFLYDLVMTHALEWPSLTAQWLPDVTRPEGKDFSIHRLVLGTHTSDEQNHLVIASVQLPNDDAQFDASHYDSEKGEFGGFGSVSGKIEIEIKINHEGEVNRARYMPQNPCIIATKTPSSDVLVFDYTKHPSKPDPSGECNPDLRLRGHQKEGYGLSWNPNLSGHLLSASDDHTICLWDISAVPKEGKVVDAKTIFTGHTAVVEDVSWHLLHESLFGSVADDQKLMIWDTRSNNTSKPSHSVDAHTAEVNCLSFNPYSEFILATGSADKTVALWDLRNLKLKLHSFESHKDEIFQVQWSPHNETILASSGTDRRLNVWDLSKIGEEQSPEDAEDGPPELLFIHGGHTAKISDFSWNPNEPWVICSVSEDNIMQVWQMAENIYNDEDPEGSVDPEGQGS
Sequence of EZH2-A677G (Q6ZN18 whole entry partner): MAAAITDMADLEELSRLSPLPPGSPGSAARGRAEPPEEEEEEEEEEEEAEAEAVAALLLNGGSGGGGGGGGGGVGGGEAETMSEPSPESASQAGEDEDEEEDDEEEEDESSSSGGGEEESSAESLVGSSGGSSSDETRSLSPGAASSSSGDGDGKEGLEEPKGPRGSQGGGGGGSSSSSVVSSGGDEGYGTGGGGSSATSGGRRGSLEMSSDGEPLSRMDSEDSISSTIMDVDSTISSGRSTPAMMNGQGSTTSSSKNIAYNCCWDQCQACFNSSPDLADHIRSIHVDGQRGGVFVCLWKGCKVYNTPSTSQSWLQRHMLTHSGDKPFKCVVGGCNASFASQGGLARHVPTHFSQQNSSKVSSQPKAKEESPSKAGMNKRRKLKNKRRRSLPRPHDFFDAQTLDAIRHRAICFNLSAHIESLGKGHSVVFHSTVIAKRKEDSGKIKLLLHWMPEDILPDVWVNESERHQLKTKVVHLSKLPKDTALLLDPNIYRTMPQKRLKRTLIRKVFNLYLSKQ

Another experiment has as its system Pfeiffer cells. Description: In vitro anti-tumor cell growth assay (CellTiter-Glo), Pfeiffer. Format: cell-based. The following applies: Homo sapiens, 120 h; Pfeiffer cells (A677G mutant), 5 days; read-out: IC50 for inhibiting the growth activity of tumor cells (Pfeiffer) in vitro. On the procedure:
Test Example 2. Assay for Determining In Vitro Anti-Tumor Cell Growth Activity of the Example Compounds of the Present Invention
This method was used to determinate the inhibitory effect of the compounds of the present invention on the growth activity of tumor cells (Pfeiffer or WSU-DLCL2) in vitro. Pfeiffer cells carry A677G mutant, and WSU-DLCL2 cells carry Y641F mutant.
The lymphoma suspension cell line (Pfeiffer or WSU-DLCL2) was cultured in a RPMI-1640 medium containing 10% inactivated Fetal Bovine Serum, 100 U/mL penicillin, and 100 μg/mL streptomycin, and incubated in an incubator with 5% carbon dioxide at 37° C. under a saturated humidity condition, and passaged every 3-4 days.
A cell sudpension was prepared with a fresh cell medium, added to a 96-well cell culture plate at 8000 cells/well (Pfeiffer) or 2000 cells/well (WSU-DLCL2), and incubated in 5% carbon dioxide at 37° C. incubator overnight. On the day of the experiment, the EZH2 test compounds (final concentration: 20000, 2000, 200, 20, 2, 0.2 nM) were added into the experimental wells for 3 parallel wells per group. A control well with the medium alone but without cells was set up to obtain the background luminescent value. The cell culture plate was incubated in an incubator with 5% carbon dioxide at 37° C. for 5 days.
After the compounds were applied to the cells for 5 days, the cell culture plate was placed at room temperature for 30 minutes, then a CellTiter-Glo reagent equal to the volume of cell culture medium was added to each well. The contents were mixed on a shaker for 10 minutes, and the […] signal values were recorded. The cell growth inhibition rate was calculated, and the formula was: cell growth inhibiton rate=[(negative control control−experimental group)/(negative control group−background luminescent value)]×100%. The IC50 values (half inhibition rate IC50, i.e., a drug concentration that is required for 50% cell growth inhibition rate) were calculated by software from the cell growth inhibiton rate and the corresponding concentration.

Usually IC50 stands for the concentration that inhibits the measured activity by half. As to `CCc1c(N(CC)C2CCOCC2)cc2oc(CN3CCN(C(C)C)CC3)cc2c1C(=O)NCc1c(OC)cc(C)[nH]c1=O` [Example 5, 5-Ethyl-6-(ethyl(tetrahydro-2H-pyran-4-yl)amino)-2-((4-isopropylpiperazin-1-yl)methyl)-N-((4-methoxy-6-methyl-2-oxo-1,2-dihydropyridin-3-yl)methyl)benzofuran-4-carboxamide], the IC50 came to 1.2 nM at EZH2-A677G and 19 nM with Pfeiffer cells.
Take `CCN(c1cc2oc(C(F)(F)F)cc2c(C(=O)NCc2c(OC)cc(C)[nH]c2=O)c1C)C1CCOCC1` [Example 29, 6-(Ethyl(tetrahydro-2H-pyran-4-yl)amino)-N-((4-methoxy-6-methyl-2-oxo-1,2-dihydropyridin-3-yl)methyl)-5-methyl-2-(trifluoromethyl)benzofuran-4-carboxamide]: the IC50 at EZH2-A677G was determined as 2.7 nM; in the experiment on Pfeiffer cells, 17 nM.
As for `CCN(c1cc2oc(CN3CCCCC3)cc2c(C(=O)NCc2c(OC)cc(C)[nH]c2=O)c1C)C1CCOCC1` [Example 4, 6-(Ethyl(tetrahydro-2H-pyran-4-yl)amino)-N-((4-methoxy-6-methyl-2-oxo-1,2-dihydropyridin-3-yl)methyl)-5-methyl-2-(piperidin-1-ylmethyl)benzofuran-4-carboxamide], the IC50 is 14 nM at EZH2-A677G and 19 nM in the experiment with Pfeiffer cells.
`CCc1c(N(CC)C2CCOCC2)cc2oc(CN3CCC(F)(F)CC3)cc2c1C(=O)NCc1c(OC)cc(C)[nH]c1=O` [Example 7, 2-((4,4-Difluoropiperidin-1-yl)methyl)-5-ethyl-6-(ethyl(tetrahydro-2H-pyran-4-yl)amino)-N-((4-methoxy-6-methyl-2-oxo-1,2-dihydropyridin-3-yl)methyl)benzofuran-4-carboxamide]: the half-inhibitory concentration (IC50) was 3.5 nM on EZH2-A677G and 11 nM with Pfeiffer cells.
As to `CCc1c(N(CC)C2CCOCC2)cc2oc(C3CCN(C)CC3)cc2c1C(=O)NCc1c(OC)cc(C)[nH]c1=O` [Example 17, 5-Ethyl-6-(ethyl(tetrahydro-2H-pyran-4-yl)amino)-N-((4-methoxy-6-methyl-2-oxo-1,2-dihydropyridin-3-yl)methyl)-2-(1-methylpiperidin-4-yl)benzofuran-4-carboxamide], the half-inhibitory concentration (IC50) at EZH2-A677G was 9.9 nM; in the experiment on Pfeiffer cells it was 9 nM.
On to `CCc1c(N(CC)C2CCOCC2)cc2oc(CN3CCOCC3)cc2c1C(=O)NCc1c(OC)cc(C)[nH]c1=O` [Example 6, 5-Ethyl-6-(ethyl(tetrahydro-2H-pyran-4-yl)amino)-N-((4-methoxy-6-methyl-2-oxo-1,2-dihydropyridin-3-yl)methyl)-2-(morpholinomethyl)benzofuran-4-carboxamide], for which the half-maximal inhibitory concentration (IC50) amounted to 7.8 nM on EZH2-A677G and 3 nM in the experiment on Pfeiffer cells.
For `CCc1c(N(CC2CC2)C2CCOCC2)cc2oc(C3CC3)cc2c1C(=O)NCc1c(OC)cc(C)[nH]c1=O` [Example 28, 2-Cyclopropyl-6-((cyclopropylmethyl)(tetrahydro-2H-pyran-4-yl)amino)-5-ethyl-N-((4-methoxy-6-methyl-2-oxo-1,2-dihydropyridin-3-yl)methyl)benzofuran-4-carboxamide], the figures for the IC50 on EZH2-A677G and in the experiment on Pfeiffer cells were 6.8 nM and 78 nM, respectively.
Regarding `CCN(c1cc2oc(C3=CCN(C)CC3)cc2c(C(=O)NCc2c(C)cc(C)[nH]c2=O)c1C)C1CCOCC1` [Example 16, N-((4,6-Dimethyl-2-oxo-1,2-dihydropyridin-3-yl)methyl)-6-(ethyl(tetrahydro-2H-pyran-4-yl)amino)-5-methyl-2-(1-methyl-1,2,3,6-tetrahydropyridin-4-yl)benzofuran-4-carboxamide], the results for the half-maximal inhibitory concentration (IC50) at EZH2-A677G and in the experiment with Pfeiffer cells were 31 nM and 18 nM, respectively.
Take `CCc1c(N(CC)C2CCOCC2)cc2oc(CN3CCN(C)CC3)cc2c1C(=O)NCc1c(OC)cc(C)[nH]c1=O` [Example 12, 5-Ethyl-6-(ethyl(tetrahydro-2H-pyran-4-yl)amino)-N-((4-methoxy-6-methyl-2-oxo-1,2-dihydropyridin-3-yl)methyl)-2-((4-methylpiperazin-1-yl)methyl)benzofuran-4-carboxamide]: the values for the 50% inhibitory concentration (IC50) at EZH2-A677G and with Pfeiffer cells were 10 nM and 22 nM, respectively.
In the case of `CCc1c(N(CC)C2CCOCC2)cc2oc(CN(C)C)cc2c1C(=O)NCc1c(OC)cc(C)[nH]c1=O` [Example 13, 2-((Dimethylamino)methyl)-5-ethyl-6-(ethyl(tetrahydro-2H-pyran-4-yl)amino)-N-((4-methoxy-6-methyl-2-oxo-1,2-dihydropyridin-3-yl)methyl)benzofuran-4-carboxamide], the IC50 at EZH2-A677G is 2.9 nM; in the experiment on Pfeiffer cells, 9 nM.
For the molecule `CCc1c(N(CC2CC2)C2CCN(CC(F)(F)F)CC2)cc2occc2c1C(=O)NCc1c(OC)cc(C)[nH]c1=O` [Example 34, 6-((Cyclopropylmethyl)(1-(2,2,2-trifluoroethyl)piperidin-4-yl)amino)-5-ethyl-N-((4-methoxy-6-methyl-2-oxo-1,2-dihydropyridin-3-yl)methyl)benzofuran-4-carboxamide], the concentration for half-maximal inhibition (IC50) at EZH2-A677G was determined as 14 nM.
As to `CCc1c(N(CC)C2CCOCC2)cc2oc(F)cc2c1C(=O)NCc1c(OC)cc(C)[nH]c1=O` [Example 27, 5-Ethyl-6-(ethyl(tetrahydro-2H-pyran-4-yl)amino)-2-fluoro-N-((4-methoxy-6-methyl-2-oxo-1,2-dihydropyridin-3-yl)methyl)benzofuran-4-carboxamide], the values for the half-inhibitory concentration (IC50) at EZH2-A677G and in the experiment with Pfeiffer cells were 3.5 nM and 4 nM, respectively.
For the molecule `CCc1c(N(CC)C2CCOCC2)cc2oc(CN3CCCC3)cc2c1C(=O)NCc1c(OC)cc(C)[nH]c1=O` [Example 8, 5-Ethyl-6-(ethyl(tetrahydro-2H-pyran-4-yl)amino)-N-((4-methoxy-6-methyl-2-oxo-1,2-dihydropyridin-3-yl)methyl)-2-(pyrrolidin-1-ylmethyl)benzofuran-4-carboxamide], the figures for the IC50 at EZH2-A677G and in the experiment with Pfeiffer cells were 6.2 nM and 12 nM, respectively.
The like results for `CCN(c1cc2oc(C3CCN(C)CC3)cc2c(C(=O)NCc2c(C)cc(C)[nH]c2=O)c1C)C1CCOCC1` [Example 15, N-((4,6-Dimethyl-2-oxo-1,2-dihydropyridin-3-yl)methyl)-6-(ethyl(tetrahydro-2H-pyran-4-yl)amino)-5-methyl-2-(1-methylpiperidin-4-yl)benzofuran-4-carboxamide] were, in that order, 16 nM and 13 nM.
On to `CCc1c(N(CC)C2CCOCC2)cc2oc(C3CCCC3)cc2c1C(=O)NCc1c(C)cc(C)[nH]c1=O` [Example 14, 2-Cyclopentyl-N-((4,6-dimethyl-2-oxo-1,2-dihydropyridin-3-yl)methyl)-5-ethyl-6-(ethyl(tetrahydro-2H-pyran-4-yl)amino)benzofuran-4-carboxamide], for which the IC50 on EZH2-A677G stood at 9.6 nM.
On to `CCN(c1cc2oc(C#N)cc2c(C(=O)NCc2c(OC)cc(C)[nH]c2=O)c1C)C1CCOCC1` [Example 30, 2-Cyano-6-(ethyl(tetrahydro-2H-pyran-4-yl)amino)-N-((4-methoxy-6-methyl-2-oxo-1,2-dihydropyridin-3-yl)methyl)-5-methylbenzofuran-4-carboxamide], for which the results for the concentration for half-maximal inhibition (IC50) at EZH2-A677G and in the experiment on Pfeiffer cells were 0.8 nM and 17 nM, respectively.
For `CCN(c1cc2occc2c(C(=O)NCc2c(OC)cc(C)[nH]c2=O)c1Cl)C1CCOCC1` [Example 22, 5-Chloro-6-(ethyl(tetrahydro-2H-pyran-4-yl)amino)-N-((4-methoxy-6-methyl-2-oxo-1,2-dihydropyridin-3-yl)methyl)benzofuran-4-carboxamide], the half-inhibitory concentration (IC50) at EZH2-A677G worked out at 6.5 nM.
Consider `CCc1c(N(CC)C2CCOCC2)cc2oc(C3CCN(C(C)C)CC3)cc2c1C(=O)NCc1c(OC)cc(C)[nH]c1=O` [Example 10, 5-Ethyl-6-(ethyl(tetrahydro-2H-pyran-4-yl)amino)-2-(1-isopropylpiperidin-4-yl)-N-((4-methoxy-6-methyl-2-oxo-1,2-dihydropyridin-3-yl)methyl)benzofuran-4-carboxamide], for which the IC50 is 1.7 nM at EZH2-A677G and 5 nM with Pfeiffer cells.
The like results for `CCc1c(N(CC)C2CCOCC2)cc2oc(CN3CCN(CC(C)(C)O)CC3)cc2c1C(=O)NCc1c(C)cc(C)[nH]c1=O` [Example 11, N-((4,6-Dimethyl-2-oxo-1,2-dihydropyridin-3-yl)methyl)-5-ethyl-6-(ethyl(tetrahydro-2H-pyran-4-yl)amino)-2-((4-(2-hydroxy-2-methylpropyl)piperazin-1-yl)methyl)benzofuran-4-carboxamide] were, in that order, 5.6 nM and 22 nM.
